In ChEMBL document CHEMBL5352392, “Design, synthesis, and biological evaluation of novel dual inhibitors of heat shock protein 90/mammalian target of rapamycin (Hsp90/mTOR) against bladder cancer cells” (Eur J Med Chem, 2022):
pIC50: −log10 of the molar value. Calls of active or inactive are those of the source. The calls are words filed in the database; no cut-off is given here.

Experiments:
[1] = target: T1, Serine/threonine-protein kinase mTOR (Homo sapiens, UniProt P42345); assay: Inhibition of mTOR (unknown origin) at 100 nM by kinase profiling assay relative to control
J82 [2] = assay: Antiproliferative activity against human J82 cells assessed as inhibition of cell proliferation at 1 uM by CCK8 assay relative to control; format: functional
T-24 [3] = assay: Antiproliferative activity against human T24 cells assessed as inhibition of cell proliferation at 1 uM by CCK8 assay relative to control; format: functional
SW780 [4] = assay: Antiproliferative activity against human SW780 cells assessed as inhibition of cell proliferation at 1 uM by CCK8 assay relative to control; format: functional
Heat shock protein HSP90 [5] = target: T2, Heat shock protein HSP90 (Homo sapiens, UniProt P07900+P08238); assay: Inhibition of Hsp90 (unknown origin) by TR-FRET assay; format: protein assay
[6] = target: T1, Serine/threonine-protein kinase mTOR; assay: Inhibition of mTOR (unknown origin) by kinase profiling assay
[7] = target: Phosphatidylinositol 4,5-bisphosphate 3-kinase catalytic subunit alpha isoform (Homo sapiens, UniProt P42336); assay: Inhibition of PI3Kalpha (unknown origin) by kinase profiling assay
J82 [8] = assay: Antiproliferative activity against human J82 cells assessed as inhibition of cell proliferation by CCK8 assay; format: functional, cell-based
T-24 [9] = assay: Antiproliferative activity against human T24 cells assessed as inhibition of cell proliferation by CCK8 assay; format: functional, cell-based
SW780 [10] = assay: Antiproliferative activity against human SW780 cells assessed as inhibition of cell proliferation by CCK8 assay; format: functional, cell-based
Heat shock protein HSP90 [11] = target: T2, Heat shock protein HSP90; conditions: dose 100.0 nM
Description: Inhibition of Hsp90 (unknown origin) at 100 nM by TR-FRET assay relative to control

SW780 [12] = assay: Induction of apoptosis in human SW780 cells assessed as viable cells at 0.2 uM incubated for 24 hrs by Annexin V-FITC/PI staining based flow cytometry (reference value: 92.3 %); format: functional; conditions: read-out: Activity
SW780 [13] = assay: Induction of apoptosis in human SW780 cells assessed as early apoptotic cells at 0.2 uM incubated for 24 hrs by Annexin V-FITC/PI staining based flow cytometry (reference value: 1.43 %); format: functional
SW780 [14] = assay: Induction of apoptosis in human SW780 cells assessed as late apoptotic cells at 0.2 uM incubated for 24 hrs by Annexin V-FITC/PI staining based flow cytometry (reference value: 2.30 %); format: functional
SW780 [15] = assay: Induction of apoptosis in human SW780 cells assessed as necrotic cells at 0.2 uM incubated for 24 hrs by Annexin V-FITC/PI staining based flow cytometry (reference value: 92.3 %); format: functional
SW780 [16] = assay: Induction of apoptosis in human SW780 cells assessed as viable cells at 0.5 uM incubated for 24 hrs by Annexin V-FITC/PI staining based flow cytometry (reference value: 92.3 %); format: functional; conditions: read-out: Activity
SW780 [17] = assay: Induction of apoptosis in human SW780 cells assessed as early apoptotic cells at 0.5 uM incubated for 24 hrs by Annexin V-FITC/PI staining based flow cytometry (reference value: 1.43 %); format: functional
SW780 [18] = assay: Induction of apoptosis in human SW780 cells assessed as late apoptotic cells at 0.5 uM incubated for 24 hrs by Annexin V-FITC/PI staining based flow cytometry (reference value: 2.30 %); format: functional
SW780 [19] = assay: Induction of apoptosis in human SW780 cells assessed as necrotic cells at 0.5 uM incubated for 24 hrs by Annexin V-FITC/PI staining based flow cytometry (reference value: 92.3 %); format: functional
SW780 [20] = assay: Induction of autophagy in human SW780 cells assessed as formation of autophagic vacuoles in cytoplasm by TEM analysis; format: functional, cell-based
SW780 [21] = assay: Induction of autophagy in human SW780 cells transfected with GFP-LC3 assessed as formation of autophagosomes at 0.5 uM incubated for 24 hrs by laser scanning confocal microscopic analysis; format: functional, cell-based
SW780 [22] = assay: Downregulation of CDK4 level in human SW780 cells at 0.2 to 0.5 uM by Western blot analysis; format: functional, cell-based; conditions: dose 0.2-0.5 µM
SW780 [23] = assay: Downregulation of c-Raf level in human SW780 cells at 0.2 to 0.5 uM by Western blot analysis; format: functional, cell-based; conditions: dose 0.2-0.5 µM
SW780 [24] = assay: Downregulation of CDC2 level in human SW780 cells at 0.2 to 0.5 uM by Western blot analysis; format: functional, cell-based; conditions: dose 0.2-0.5 µM
SW780 [25] = assay: Upregulation of Hsp70 level in human SW780 cells by Western blot analysis; format: functional, cell-based; conditions: dose 0.2-0.5 µM
SW780 [26] = assay: Downregulation of phosphorylated mTOR level in human SW780 cells at 0.2 to 0.5 uM by Western blot analysis; format: functional, cell-based; conditions: dose 0.2-0.5 µM
SW780 [27] = assay: Downregulation of phosphorylated AKT level in human SW780 cells at 0.2 to 0.5 uM by Western blot analysis; format: functional, cell-based; conditions: dose 0.2-0.5 µM
SW780 [28] = assay: Upregulation of LC3-II level in human SW780 cells at 0.2 to 0.5 uM by Western blot analysis; format: functional, cell-based; conditions: dose 0.2-0.5 µM
SW780 [29] = assay: Downregulation of p62 level in human SW780 cells at 0.2 to 0.5 uM by Western blot analysis; format: functional, cell-based; conditions: dose 0.2-0.5 µM
SW780 [30] = assay: Upregulation of cytochrome C level in human SW780 cells at 0.2 to 0.5 uM by Western blot analysis; format: functional, cell-based; conditions: dose 0.2-0.5 µM
SW780 [31] = assay: Upregulation of cleaved caspase-3 level in human SW780 cells at 0.2 to 0.5 uM by Western blot analysis; format: functional, cell-based; conditions: dose 0.2-0.5 µM
SW780 [32] = assay: Antiproliferative activity against human SW780 cells assessed as cell survival at 0.5 uM measured after 72 hrs by CCK8 assay relative to control; format: functional; conditions: read-out: Activity
SW780 [33] = assay: Upregulation of intracellular cathepsin B activity in human SW780 cells; format: functional, cell-based
SW780 [34] = assay: Upregulation of intracellular cathepsin B activity in human SW780 cells in presence of 3-MA; format: functional, cell-based
SW780 [35] = assay: Upregulation of intracellular cathepsin B activity in human SW780 cells in presence of Baf-A1; format: functional, cell-based
SW780 [36] = assay: Induction of autophagy in human SW780 cells transfected with GFP-LC3 assessed as formation of autophagosomes incubated for 6 hrs in presence of 3-MA by laser scanning confocal microscopic analysis; format: functional, cell-based
SW780 [37] = assay: Induction of autophagy in human SW780 cells transfected with GFP-LC3 assessed as formation of autophagosomes incubated for 6 hrs in presence of Baf-A1 by laser scanning confocal microscopic analysis; format: functional, cell-based
J82 [38] = assay: Antitumor activity against human J82 cells xenografted in nude Balb/c mouse assessed as tumor growth inhibition at 30 mg/kg, po administered everyday for 17 days; format: functional, organism-based; conditions: time 17.0 day
[39] = Toxicity in nude Balb/c mouse xenografted with human J82 cells assessed as body weight reduction at 30 mg/kg, po administered everyday for 17 days; format: organism-based; conditions: in vivo, 408 h, time 17 day
J82 [40] = assay: Antitumor activity against human J82 cells xenografted in nude Balb/c mouse assessed as […] at 30 mg/kg, po administered everyday for 17 days by IHC analysis; format: functional, organism-based; conditions: time 17.0 day
J82 [41] = assay: Antitumor activity against human J82 cells xenografted in nude Balb/c mouse assessed as decrease in mTOR phosphorylation level at 30 mg/kg, po administered everyday for 17 days by IHC analysis; format: functional, organism-based; conditions: time 17.0 day
J82 [42] = assay: Antitumor activity against human J82 cells xenografted in nude Balb/c mouse assessed as increase in LC3-II level at 30 mg/kg, po administered everyday for 17 days by IHC analysis; format: functional, organism-based; conditions: time 17.0 day

Phosphatidylinositol 4,5-bisphosphate 3-kinase catalytic subunit alpha isoform, sequence (P42336 whole entry, canonical isoform): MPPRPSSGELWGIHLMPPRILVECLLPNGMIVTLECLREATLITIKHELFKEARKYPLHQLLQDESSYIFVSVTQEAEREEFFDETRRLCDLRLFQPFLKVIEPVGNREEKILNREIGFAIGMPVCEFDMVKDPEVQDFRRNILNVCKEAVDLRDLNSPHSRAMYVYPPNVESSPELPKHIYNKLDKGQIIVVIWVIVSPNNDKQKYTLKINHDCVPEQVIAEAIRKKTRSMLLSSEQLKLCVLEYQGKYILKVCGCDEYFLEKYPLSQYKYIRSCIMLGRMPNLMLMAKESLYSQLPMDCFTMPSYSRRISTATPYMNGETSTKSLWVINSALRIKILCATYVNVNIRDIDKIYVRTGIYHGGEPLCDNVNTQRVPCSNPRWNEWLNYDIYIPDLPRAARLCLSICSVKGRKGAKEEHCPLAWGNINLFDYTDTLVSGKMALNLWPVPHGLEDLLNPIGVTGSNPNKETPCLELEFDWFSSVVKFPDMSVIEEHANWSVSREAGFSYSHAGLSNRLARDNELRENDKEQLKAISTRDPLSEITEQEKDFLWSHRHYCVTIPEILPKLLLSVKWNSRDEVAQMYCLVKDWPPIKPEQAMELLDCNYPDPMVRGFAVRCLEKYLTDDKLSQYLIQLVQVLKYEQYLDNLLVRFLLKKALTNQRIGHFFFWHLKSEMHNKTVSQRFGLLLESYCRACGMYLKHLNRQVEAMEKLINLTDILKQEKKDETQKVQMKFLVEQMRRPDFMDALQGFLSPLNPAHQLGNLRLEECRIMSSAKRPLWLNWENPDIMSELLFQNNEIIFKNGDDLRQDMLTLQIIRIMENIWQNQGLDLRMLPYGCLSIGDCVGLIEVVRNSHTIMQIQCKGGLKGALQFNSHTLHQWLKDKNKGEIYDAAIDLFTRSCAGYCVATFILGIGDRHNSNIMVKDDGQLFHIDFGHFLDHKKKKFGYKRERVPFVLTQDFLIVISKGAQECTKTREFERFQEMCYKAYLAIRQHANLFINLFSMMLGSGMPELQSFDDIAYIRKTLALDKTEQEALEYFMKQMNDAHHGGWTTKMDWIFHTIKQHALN

With `CC(C)c1cc(C(=O)N2CCc3c(sc4nc(-c5ccc(NC(=O)Nc6cc(Cl)cc(Cl)c6)cc5)nc(N5CCOCC5)c34)C2)c(O)cc1O` the inhibition [1] was 73.5%, the inhibition at 1 µM (J82 [2]) was 69.1% and the inhibition at 1 µM (T-24 [3]) was 67%. It also gave an inhibition at 1 µM (SW780 [4]) of 77.8%, an IC50 (Heat shock protein HSP90 [5]) of 365 nM and a pIC50 [6] of 6.97. For the same molecule, the pIC50 [7] was 5.25, the pIC50 (J82 [8]) was 5.80 and the pIC50 (T-24 [9]) was 6.26. The pIC50 (SW780 [10]) was 6.16 and the inhibition (Heat shock protein HSP90 [11]) was 68.3%.
In the case of `CC(C)c1cc(C(=O)N2CCc3c(sc4nc(-c5ccc(NC(=O)Nc6cccc(C(F)(F)F)c6)cc5)nc(N5CCOCC5)c34)C2)c(O)cc1O`, the inhibition [1] was 66.3%, the inhibition at 1 µM (J82 [2]) was 69.1% and the inhibition at 1 µM (T-24 [3]) was 82.5%. It also gave an inhibition at 1 µM (SW780 [4]) of 65.6%, an IC50 (Heat shock protein HSP90 [5]) of 126 nM and a pIC50 [6] of 6.66. The pIC50 [7] was 5.61, the pIC50 (J82 [8]) was 5.56 and the pIC50 (T-24 [9]) was 6.03. It also gave a pIC50 (SW780 [10]) of 6.18 and an inhibition (Heat shock protein HSP90 [11]) of 73.8%.
In the case of `CC(C)c1cc(C(=O)N2CCc3c(sc4nc(-c5ccc(NC(=O)Nc6ccc(F)c(Cl)c6)cc5)nc(N5CCOCC5)c34)C2)c(O)cc1O`, the inhibition [1] was 83.1%, the inhibition at 1 µM (J82 [2]) was 79.3% and the inhibition at 1 µM (T-24 [3]) was 91.7%. It also gave an inhibition at 1 µM (SW780 [4]) of 93.8%, a viability at 0.2 µM (SW780 [12]) of 87.6% and an Activity (SW780 [13]) of 4.77%. For the same molecule, the Activity (SW780 [14]) was 3.29%, the Activity (SW780 [15]) was 4.38% and the viability at 0.5 µM (SW780 [16]) was 83.5%. For the same molecule, the Activity (SW780 [17]) was 9.23%, the Activity (SW780 [18]) was 5.01% and the Activity (SW780 [19]) was 2.31%. For the same molecule, the Activity (SW780 [20]) was “Active”, the Activity (SW780 [21]) was “Active” and the Activity (SW780 [22]) was “Active”. The Activity (SW780 [23]) was “Active”, the Activity (SW780 [24]) was “Active” and the Activity (SW780 [25]) was “Dose-Dependent Effect”. The Activity (SW780 [26]) was “Active”, the Activity (SW780 [27]) was “Active” and the Activity (SW780 [28]) was “Active”. The Activity (SW780 [29]) was “Active”, the Activity (SW780 [30]) was “Active” and the Activity (SW780 [31]) was “Active”. For the same molecule, the viability at 0.5 µM (SW780 [32]) was under 40%, the Activity (SW780 [33]) was “Active” and the Activity (SW780 [34]) was “inactive”. The Activity (SW780 [35]) was “inactive”, the Activity (SW780 [36]) was “inactive” and the Activity (SW780 [37]) was “Active”. For the same molecule, the inhibition (J82 [38]) was “Active”, the Activity [39] was “Non-Toxic” and the Activity (J82 [40]) was “Active”. The Activity (J82 [41]) was “Active”, the Activity (J82 [42]) was “Active” and the IC50 (Heat shock protein HSP90 [5]) was 69 nM. The pIC50 [6] was 7.54, the pIC50 [7] was 5.30 and the pIC50 (J82 [8]) was 6.44. The pIC50 (T-24 [9]) was 6.39, the pIC50 (SW780 [10]) was 6.80 and the inhibition (Heat shock protein HSP90 [11]) was 83.3%.
`CC(C)c1cc(C(=O)N2CCc3c(sc4nc(N5CCOC[C@@H]5C)nc(N5CCOC[C@@H]5C)c34)C2)c(O)cc1O` gave an inhibition [1] of 75.4%, an inhibition at 1 µM (J82 [2]) of 52.8% and an inhibition at 1 µM (T-24 [3]) of 55.4%. The inhibition at 1 µM (SW780 [4]) was 79.9%, the IC50 (Heat shock protein HSP90 [5]) was 476 nM and the pIC50 [6] was 7.14. For the same molecule, the pIC50 [7] was under 5.00, the pIC50 (J82 [8]) was 6.11 and the pIC50 (T-24 [9]) was 5.77. It also gave a pIC50 (SW780 [10]) of 6.43 and an inhibition (Heat shock protein HSP90 [11]) of 56.6%.
`CC(C)c1cc(C(=O)N2CCc3c(sc4nc(-c5ccc(NC(=O)Nc6cccc(Cl)c6)cc5)nc(N5CCOCC5)c34)C2)c(O)cc1O` showed an inhibition [1] of 75.2%, an inhibition at 1 µM (J82 [2]) of 84.7% and an inhibition at 1 µM (T-24 [3]) of 65%. The inhibition at 1 µM (SW780 [4]) was 89.8%, the IC50 (Heat shock protein HSP90 [5]) was 147 nM and the pIC50 [6] was 7.09. For the same molecule, the pIC50 [7] was 5.44, the pIC50 (J82 [8]) was 6.12 and the pIC50 (T-24 [9]) was 5.76. For the same molecule, the pIC50 (SW780 [10]) was 6.13 and the inhibition (Heat shock protein HSP90 [11]) was 72.7%.
